For assay [1], the system named is Mycobacterium tuberculosis. The assay can be described thus: Antituberculosis activity against isoniazid-sensitive Mycobacterium tuberculosis H37Rv by microdilution method. It is filed as functional.
The nature of assay [2]: Selectivity index, ratio of IC50 for C57BL/6 mouse peritoneal macrophages to MIC for Mycobacterium tuberculosis H37Rv.
A short description of assay [3]: Cytotoxicity against C57BL/6 mouse peritoneal macrophages assessed as cell viability by lactate dehydrogenase release assay. It counts as cell-based. The settings on record: C57BL/6, Peritoneal macrophage cell.

≈ marks a conversion by molar mass, not a printed value. Calls of active or inactive are those of the source. The calls are words filed in the database; no cut-off is given here.

For the compound `COc1ccc2[nH]c(C(=O)O)c(/C=N/NC(N)=S)c2c1`, the MIC – broadly, the least concentration at which growth counts as inhibited – in assay [1] was > 10 mg/L. As for `CCOC(=O)c1[nH]c2ccccc2c1CNNC(=O)C1CCNCC1.CS(=O)(=O)O`, the minimum inhibitory concentration (MIC) in assay [1] was 20 mg/L. For the compound `NC(=S)N/N=C/c1c(C(=O)O)[nH]c2ccccc12`, in assay [1], the MIC was > 10 mg/L.

In the case of `NC(=S)N/N=C/c1c(C(=O)O)[nH]c2ccc(Cl)cc12`, it took 10 mg/L (≈ 33.7 µM) to inhibit growth in assay [1] (MIC). Take `CC(=O)n1cc(NNC(=O)c2ccncc2)c2ccccc21`: the “Selectivity Index” value in assay [2] was determined as 250. Further, in assay [1], inhibition of growth (MIC) required 0.2 mg/L (≈ 0.68 µM). Moreover, in assay [3], the IC50 (as a rule, the concentration needed to halve the response being measured) was 50 mg/L (≈ 170 µM). For `CCOC(=O)c1[nH]c2ccccc2c1CNNC(=O)c1cc[n+]([O-])cc1`, the “Selectivity Index” value in assay [2] was determined as 8. In assay [1], this compound came in with an MIC of 2 mg/L (≈ 5.64 µM). In addition, in assay [3], the IC50 worked out at 16 mg/L (≈ 45.2 µM). `CC(=O)n1cc(NNC(=O)c2ccc[n+]([O-])c2)c2ccccc21` returned an MIC in assay [1] of 2 mg/L (≈ 6.45 µM). Also, the IC50 in assay [3] came out at 17 mg/L (≈ 54.8 µM). For `CCOC(=O)c1[nH]c2ccc(Br)cc2c1CNNC(=O)c1ccncc1`, the MIC in assay [1] stood at 10 mg/L (≈ 24 µM).

Turning to `CCOC(=O)c1[nH]c2ccc(C)cc2c1/C=N\NC(=O)c1ccncc1`, the “Selectivity Index” value in assay [2] came out at 300. This compound also registered an MIC in assay [1] of 0.05 mg/L (≈ 0.143 µM). Moreover, the IC50 in assay [3] was found to be 15 mg/L (≈ 42.8 µM).

As to `CCOC(=O)c1[nH]c2ccccc2c1CN(NC(=O)c1ccncc1)C(=O)Nc1ccc(Cl)cc1`, in assay [1], the MIC result was “inactive”. As for `NNC(=O)c1cccnc1` [NICOTINIC ACID HYDRAZIDE], the MIC in assay [1] was found to be 5 mg/L (≈ 36.5 µM). For `CCOC(=O)c1[nH]c2ccccc2c1/C=N\NC(=O)c1ccncc1`, the “Selectivity Index” value in assay [2] turned out to be 106.6. In assay [1], this compound came in with an MIC of 0.15 mg/L (≈ 0.446 µM). The IC50 in assay [3] was found to be 16 mg/L (≈ 47.6 µM). As to `CCOC(=O)c1[nH]c2ccc(Cl)cc2c1/C=N\NC(=O)c1ccncc1`, it took 0.1 mg/L (≈ 0.27 µM) to inhibit growth in assay [1] (MIC). Consider `Cc1ccc2[nH]c(C(=O)O)c(/C=N/NC(N)=S)c2c1`, for which the MIC in assay [1] was > 10 mg/L.

On to `CCOC(=O)c1[nH]c2ccc(OC)cc2c1/C=N/NC(N)=S`, for which the MIC in assay [1] is > 10 mg/L. On the same count and under the same terms, the same measure for `CCOC(=O)c1[nH]c2ccc(Cl)cc2c1CNNC(=O)c1ccncc1`: 0.2 mg/L (≈ 0.536 µM). For `NNC(=O)c1cc[n+]([O-])cc1`, in assay [2], the “Selectivity Index” value was determined as 11.5. Moreover, the lowest concentration to inhibit growth in assay [1] (MIC) was 5.2 mg/L (≈ 34 µM). In addition, in assay [3], the IC50 turned out to be 60 mg/L (≈ 392 µM). `CCOC(=O)c1[nH]c2ccc(C)cc2c1/C=N/NC(N)=S` yielded an MIC in assay [1] of 2 mg/L (≈ 6.57 µM).

As for `CC(=O)n1cc(N(NC(=O)c2ccncc2)C(=O)Nc2ccc(Cl)cc2)c2ccccc21`, the MIC entry in assay [1] was “inactive”. Take `O=C(NNCc1c[nH]c2ccccc12)c1ccncc1`: in assay [2], the “Selectivity Index” value was 150. Further, 0.1 mg/L (≈ 0.376 µM) was the least that counted as inhibitory in assay [1] (MIC). Further, the IC50 in assay [3] came out at 15 mg/L (≈ 56.3 µM).

For the compound `NNC(=O)c1ccc[n+]([O-])c1`, the MIC in assay [1] was > 10 mg/L. Still for that read-out and setting: the same measure for `CC(=O)N1C/C(=N\NC(N)=S)c2ccccc21`: > 10 mg/L. On to `CC(=O)n1cc(NNC(=O)c2cccnc2)c2ccccc21`, for which inhibition of growth in assay [1] (MIC) required 20 mg/L (≈ 68 µM).

Turning to `Cc1ccc2[nH]c(C(=O)O)c(/C=N\NC(=O)c3ccncc3)c2c1`, the “Selectivity Index” value in assay [2] was 250. In addition, inhibition of growth in assay [1] (MIC) required 0.1 mg/L (≈ 0.31 µM). Besides, the IC50 in assay [3] worked out at 25 mg/L (≈ 77.6 µM).

In the case of `NNC(=O)c1ccncc1` [ISONIAZID], in assay [2], the “Selectivity Index” value was >1666. In addition, the MIC in assay [1] turned out to be 0.06 mg/L (≈ 0.438 µM). Besides, the IC50 in assay [3] was > 100 mg/L. Regarding `CCOC(=O)c1[nH]c2ccccc2c1CN(NC(=O)c1ccncc1)C(=O)c1ccncc1`, the MIC result in assay [1] was “inactive”. For the compound `CCOC(=O)c1[nH]c2ccccc2c1/C=N\NC(=O)c1cc[n+]([O-])cc1`, in assay [2], the “Selectivity Index” value is listed as 9. Moreover, it took 2 mg/L (≈ 5.68 µM) to inhibit growth in assay [1] (MIC). Further, in assay [3], the IC50 was found to be 18 mg/L (≈ 51.1 µM).

In the case of `O=C(N/N=C\c1c[nH]c2ccccc12)c1cc[n+]([O-])cc1`, in assay [2], the “Selectivity Index” value was found to be 30. This compound came in with an MIC in assay [1] of 1 mg/L (≈ 3.57 µM). The IC50 in assay [3] was 30 mg/L (≈ 107 µM). In the case of `CCOC(=O)c1[nH]c2ccc(C)cc2c1CNNC(=O)c1ccncc1`, the MIC in assay [1] was determined as 0.2 mg/L (≈ 0.568 µM). `CCOC(=O)c1[nH]c2ccccc2c1CNNC(=O)c1ccncc1` registered an MIC in assay [1] of 0.2 mg/L (≈ 0.591 µM). Same read-out and setting: the same measure for `CC(=O)n1cc(NNC(=O)c2cc[n+]([O-])cc2)c2ccccc21`: 2 mg/L (≈ 6.45 µM).

In the case of `O=C(N/N=C\c1c[nH]c2ccccc12)c1ccncc1`, the “Selectivity Index” value in assay [2] is 400. 0.1 mg/L (≈ 0.378 µM) was the least that counted as inhibitory in assay [1] (MIC). In addition, the IC50 in assay [3] is 40 mg/L (≈ 151 µM).

Values taken from ChEMBL document CHEMBL3751705, “Synthesis and antituberculosis activity of indole-pyridine derived hydrazides, hydrazide-hydrazones, and thiosemicarbazones” (Bioorg Med Chem Lett, 2016).
